Measurements from patent US20180170776A1, “ANTI-MICROBIAL ADDITIVE FOR USE IN FLOWER VASE WATER” (Enhold B.V., priority 2008, published 2018).

Assays:
[1] = test system: mixed bouquet of 12 flowers; test: Flower life of a mixed bouquet of cut flowers in a vase with 1 litre of solution; format: in vivo, Rosa, Chrysanthemum santini, Gerbera, Antirrhinum, Solidago; details: 1 litre solution, 20° C., 12 per 24 hours of 1000 lux, additions per litre of base solution (BZC 30 ppm, GOX 100 SRU)
Experimental: A mixed bouquet of 12 flowers composed as follows: was placed in a vase with 1 litre of solution. The solution was either tap water or an aqueous base solution containing 10 g/1 of a composition containing 94.66% glucose, 5% citric acid, 0.34% conventional biocides. […] The vases with flowers were placed under 12 per 24 hours of 1000 lux, at 20° C.

[2] = test system: bacterial contamination; test: Bacterial contamination after 7 days; format: cell-based; details: for CFU (bacterial contamination after 7 days): below 10 hardly or not contaminated, above 1,000 heavily contaminated, additions per litre of base solution (BZC 30 ppm, GOX 100 SRU); for effect on bacterial contamination (in words): summary of the table
Experimental: was placed in a vase with 1 litre of solution. The solution was either tap water or an aqueous base solution containing 10 g/1 of a composition containing 94.66% glucose, 5% citric acid, 0.34% conventional biocides. […] The vases with flowers were placed under 12 per 24 hours of 1000 lux, at 20° C.

benzalkonium chloride [BZC]
FL (flower life) [1]: 12.0 days
CFU (bacterial contamination after 7 days) [2]: 900 1000 CFU/g stem
effect on bacterial contamination (in words) [2]: strong effect

glucose oxidase [GOX]
FL (flower life) [1]: 12.7 days
CFU (bacterial contamination after 7 days) [2]: 4,400 1000 CFU/g stem
effect on bacterial contamination (in words) [2]: strong effect
